Read-outs that look alike come from different tables or passages of the source.
Legend:
[1] = target: A/WSN/33 (H1N1) influenza virus FluPol (Influenza A virus, UniProt P03430); experiment: biochemical; format: biochemical, influenza A/WSN/33 (H1N1) virus
[2] = tested on: influenza virus; settings: read-out: EC90 influenza virus growth in cell culture; cited from earlier work
[3] = target: SARS-CoV-2 nsp7/8/12 complex (Severe acute respiratory syndrome coronavirus 2, UniProt P0DTD1); experiment: SARS-CoV-2 nsp7/8/12 in vitro activity assay; format: biochemical
[4] = target: FluPol (Influenza A virus, UniProt P03430); format: biochemical, influenza A/WSN/33 (H1N1) virus
Sequence of FluPol (P03430 whole entry, looked up): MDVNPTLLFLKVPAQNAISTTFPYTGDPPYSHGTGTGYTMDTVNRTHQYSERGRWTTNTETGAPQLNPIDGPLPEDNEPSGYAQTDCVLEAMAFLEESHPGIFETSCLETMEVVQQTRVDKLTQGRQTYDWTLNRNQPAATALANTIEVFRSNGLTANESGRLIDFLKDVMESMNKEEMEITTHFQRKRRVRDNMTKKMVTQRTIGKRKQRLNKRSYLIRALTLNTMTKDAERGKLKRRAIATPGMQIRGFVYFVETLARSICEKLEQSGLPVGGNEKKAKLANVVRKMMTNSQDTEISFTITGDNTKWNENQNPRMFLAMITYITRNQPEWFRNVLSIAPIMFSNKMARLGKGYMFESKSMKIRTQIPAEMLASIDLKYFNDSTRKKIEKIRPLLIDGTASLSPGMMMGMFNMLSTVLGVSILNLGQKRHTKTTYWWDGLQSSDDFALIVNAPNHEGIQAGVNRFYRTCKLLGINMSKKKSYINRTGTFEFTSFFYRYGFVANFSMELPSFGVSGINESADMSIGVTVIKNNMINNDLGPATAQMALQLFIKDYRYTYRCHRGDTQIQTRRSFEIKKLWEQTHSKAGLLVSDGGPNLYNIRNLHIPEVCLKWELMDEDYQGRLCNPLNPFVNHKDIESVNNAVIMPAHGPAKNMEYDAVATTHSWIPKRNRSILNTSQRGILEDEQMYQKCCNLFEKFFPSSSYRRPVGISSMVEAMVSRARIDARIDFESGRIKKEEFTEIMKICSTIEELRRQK

Sequence of A/WSN/33 (H1N1) influenza virus FluPol (P03430 whole entry, looked up): as above

Row | SMILES | FOLD CHANGE IC50 [1] | IC50 ([1]; read-out: FLUPOL IC50) [mM] | IC50 [1] [mM] | also measured
1 | C[n+]1ccc(C(=O)NCc2ccccc2O)cc1 [VR16-01, 4-{[(2-hydroxyphenyl)methyl]carbamoyl}-1-methylpyridin-1-ium] | 0.6 | 78.2 | – | –
2 | C[n+]1ccc(C(=O)NCc2ccccc2)cc1 [enisamium, 4-(benzylcarbamoyl)-1-methylpyridinium] | – | – | – | EC90 [2]: 0.157 to 0.439 mM
3 | O=C(NCc1ccccc1O)c1ccncc1 [VR18-01, N-[(2-hydrophenyl)methyl]pyridine-4-carboxamide] | 1.4 | 34.2 | – | –
4 | O=C(NCc1ccccc1)c1cc[nH]c(=O)c1 [VR18-04, N-benzyl-2-oxo-1,2-dihydropyridine-4-carboxamide] | 1.3 | – | 35.2 | –
5 | NC(=O)c1nc(F)cn([C@@H]2O[C@H](COP(=O)(O)OP(=O)(O)OP(=O)(O)O)[C@@H](O)[C@H]2O)c1=O [T-705 triphosphate, 6-fluoro-3,4-dihydro-4-[5-O-(hydroxy{[hydroxy(phosphonooxy)phosphinyl]oxy}phosphinyl)-β-d-ribofuranosyl]-3-oxo-2-pyrazinecarboxamide, reference compound] | – | – | 0.011 | IC50 SARS-CoV-2 nsp7/8/12 RNA synthesis activity ([3]; in vitro, 30 mins, VR17-04 value estimated from the dose-response curve): non-inhibitory
6 | C[n+]1ccc(C(=O)NCc2ccccc2)cc1 [FAV00A, N-methyl-4-benzylcarbamidopyridinium iodide, reference compound] | 1 | – | 46.3 | IC50 [3]: 40.7 mM; inhibition of FluPol activity by cellular extract [4]: strong, concentration-dependent inhibition
7 | O=C(NCc1ccc(O)cc1)c1ccncc1 [VR18-03, N-[(4-hydrophenyl)methyl]pyridine-4-carboxamide] | 0.6 | 74 | – | –
8 | O=C(NCc1cccc(O)c1)c1ccncc1 [VR18-02, N-[(3-hydrophenyl)methyl]pyridine-4-carboxamide] | 0.5 | 94.8 | – | –

Reference: paper PMC7263517 (bioRxiv, 2020)
